Source: US20250177340A1, “Tartaric Acid Analogs and Uses Thereof” (Lapix Therapeutics, Inc., priority 2021, published 2025)

Assays:
[1] = tested on: TNF-α; test: TNF-α ELISA in RAW 264.7 cells; assay type: cell-based, mouse; conditions: 0.0001-100 mM, human FVIII antigen
Experimental: (§1) RAW 264.7 cells were prepared, cultured, and dosed as described herein. The RAW 264.7 cell line is an immortalized mouse monocyte macrophage that is very close to primary cells, easy to maintain with minimum manipulation, and known to express TIM4. […] OPLS and TTA were dosed at 100, 70, 50, 30, 10, 3, 1, 0.3, 0.1, 0.03, 0.01, 0.003, 0.001, 0.0003 and 0.0001 mM. Finally, 100 μl of 40 μg/ml of human FVIII as a sample antigen was added to each well. LPS and free protein were used as positive and baseline controls, respectively. OPLS and TTA were formulated in RPMI media in aseptic conditions. The pH was adjusted to approximately 7.5 before dosing cells. TNF-α and TGF-β ELISAs were conducted as per the manufacturer's instructions (TNF-α ELISA kit: R&D systems DY410; TGF-β ELISA kit: R&D systems DY1679).

[2] = tested on: TGF-β; test: TGF-β ELISA in RAW 264.7 cells; assay type: cell-based, mouse; conditions: 0.0001-100 mM, human FVIII antigen
Experimental: as §1

[3] = tested on: human CD8+ T cells; test: Proliferation of PS-treated human CD8+ T-cells (CFSE); assay type: cell-based; conditions: 70 mM L-(+)-tartaric acid with 0.1 mM PS
Description: (§2) 30:70 PS:DMPC liposomes were synthesized in PBS.

[4] = tested on: PD-1 and TIM3; test: PD-1 and TIM3 expression on PS-treated human CD8+ T-cells (flow cytometry); assay type: cell-based
Description: as §2

[5] = tested on: murine CD8+ T cells; test: Murine CD8+ T-cell proliferation (CFSE), Example 6; assay type: cell-based, C57BL/6 mice
Experimental: Preparation of test materials: TTA, compound A and compound B were formulated in RPMI media under aseptic conditions. The pH was adjusted to approximately 7.5 before dosing cells.
Tissue culture and dosing: Splenocytes of C57BL/6 mice were stained with CFSE and prepared, cultured, and dosed. Cells were seeded at 1×10^5 cells/well in a 96-well round-bottomed plate.
Controls: Two controls were used. A negative control dosed with 10 ng/ml IL2 was used, and a positive control dosed with 20 μg/ml ConA and 10 ng/ml IL2 was used.
Treatment: After ConA stimulation (10 μg/ml), cells were dosed with 30 mM compound A, B or C with or without 0.1 mM 30:70 PS:DMPC liposomes. All wells were dosed with 10 ng/ml of IL-2.

[6] = tested on: human CD8+ T cells; test: Survival of PS-treated human CD8+ T-cells (viability dye, microscopy)
Experimental: (§13) CD8+ T-cells were stained with CFSE (ThermoFisher Catalog No. 50-169-50), and prepared, cultured, and dosed as described herein. Briefly, cells were seeded at 4×10^5 cells/well. IL-2 (10 ng/ml) was used as a negative control, and ConA (20 μg/ml) in conjunction with IL-2 (10 ng/ml) was used as a positive control. After ConA stimulation (10 μg/ml) in the presence of 10 ng/ml IL-2, cells were dosed in duplicate with PS:DMPC liposomes to give a total of 100, 10, 1, or 0.1 mM of PS. […] Flow cytometer analysis was performed to assess cell survival by viability dye and proliferation by CFSE (gated on survived CD8+ T-cells).
(§14) Cells were observed via a microscope at the end of the incubation period.

[7] = tested on: KLRG1; test: Percent KLRG1+ T-cells in spleens, single dose on Day 7 (Examples 17, 19, 20); assay type: in vivo, C57BL6 mice; conditions: for activity after oral administration (KLRG1+, PD1+ T-cells): single PO dose: E 2.5 mg, F 1 mg, G 1 mg; for percent KLRG1+ T-cells compared to untreated animals: single dose, E 0.1, 0.25, 1 mg IV or 2.5 mg PO, F 0.03-1 mg IV or 1 mg PO, G 0.1, 0.4, 1 mg IV or 1 mg PO
Experimental: (§3) Melanoma B16F10 cells were injected IV into C57BL6 mice on Day 0. On Day 7, mice were administered a single dose of 0.1 mg, 0.25 mg, or 1 mg of Compound E IV or 2.5 mg Compound E PO. One group was left untreated. Three mice at each time point were sacrificed, and their spleens were extracted. Percent KLRG1+ and PD-1^+ T-cells were quantified. Briefly, single-cell suspensions prepared from the extracted spleens were prepared and stained for KLRG1, PD-1 and CD8, and analyzed by flow cytometry.
as §3, with “of 0.03 mg,” for “of”, “0.3 mg” for “0.25 mg,”, “mg” for “mg of”, “F” for “E”, “1” for “2.5”
as §3, with “0.4” for “0.25”, “mg” for “mg of”, “G” for “E”, “1” for “2.5”

[8] = tested on: PD-1; test: Percent PD-1+ T-cells in spleens, single dose on Day 7 (Examples 17, 19, 20); assay type: in vivo, C57BL6 mice; conditions: E 0.1, 0.25, 1 mg IV or 2.5 mg PO, F 0.03-1 mg IV or 1 mg PO, G 0.1, 0.4, 1 mg IV or 1 mg PO
Experimental: as §3
as §3, with “of 0.03 mg,” for “of”, “0.3 mg” for “0.25 mg,”, “mg” for “mg of”, “F” for “E”, “1” for “2.5”
as §3, with “0.4” for “0.25”, “mg” for “mg of”, “G” for “E”, “1” for “2.5”

[9] = tested on: murine CD8+ T-cells; test: Murine CD8+ T-cell proliferation concentration-response (CFSE), Example 7; assay type: cell-based, C57BL/6 mice
Description: (§4) In this study, the effects of increasing doses of compound B and compound C on proliferation (CFSE staining), activation (Granzyme B and IFN-γ), and checkpoint modulation (PD1 and TIM3) of murine CD8+ T-cells in the presence and absence of phosphatidylserine (PS) were explored.
(§5) Preparation of test materials: 30:70 PS:DMPC liposomes were synthesized in PBS. […] Compound C was first dissolved in a small volume of DMSO before diluting to the final desired concentration.
(§6) Tissue culture and dosing: Splenocytes of C57BL/6 mice were stained with CFSE and prepared, cultured, and dosed. Cells were seeded at 4×10^5 cells/well.
(§7) Controls: Two controls were used. A negative control dosed with 10 ng/ml IL-2 was used, and a positive control dosed with 20 μg/ml ConA and 10 ng/ml IL-2 was used.
(§8) Treatment: After ConA stimulation (10 μg/ml), cells were dosed with log 3 dilution of compound B or compound C to cover a range from 1×10^−3 to 30 mM in duplicates with or without 0.1 mM PS:DMPC liposomes. All wells were dosed with 10 ng/ml of IL-2.
(§9) Flow cytometer: Flow cytometer analysis was performed to assess cell proliferation by CFSE, activation by double staining for Granzyme B (GzmB) and IFN-γ, checkpoint modulation by double staining for PD-1 and TIM3.
(§10) Exposure-response analysis: Change from baseline was calculated for each marker as follows:
(§11) Concentration versus change was fitted to an appropriate three-, four- or five-parameter log-logistic model using “dre” package in “R.”
The fold change from baseline of CD8+ T-cells proliferation as a function of increasing doses of compound B was calculated using equation 1, where ResponseControl was the proliferation of cells treated with IL-2 alone and Responsetreatment was the proliferation at each dose of compound B. The baseline PS response was calculated using the same equation where Responsetreatment was the proliferation of cells treated with 0.1 mM PS.

[10] = tested on: Granzyme B and IFN-γ; test: GzmB+/IFN-γ+ double-positive murine CD8+ T-cells, Example 7; assay type: cell-based, C57BL/6 mice; conditions: controls: high dose ConA; 0.1 mM PS liposomes
Description: as §4, §5, §6, §7, §8, §9, §10, §11
(§12) The fold change from baseline GzmB+/IFN-γ+ double-positive CD8+ T-cells as a function of increasing doses of compound B was calculated using equation 1, where Responsecontrol was GzmB+/IFN-γ+ double-positive CD8+ T-cells in cells treated with IL-2 alone and Responsetreatment was GzmB+/IFN-γ+ double-positive CD8+ T-cells at each dose of compound B. The baseline PS response was calculated using the same equation with Responsetreatment as the GzmB+/IFN-γ+ double-positive CD8+ T-cells treated with 0.1 mM PS.

[11] = tested on: TIM3 and PD-1; test: TIM3+/PD-1+ double-positive murine CD8+ T-cells, Example 7; assay type: cell-based, C57BL/6 mice; conditions: controls: high dose ConA; 0.1 mM PS liposomes
Description: as §4, §5, §6, §7, §8, §9, §10, §11
as §12, with “baseline of TIM3+/PD-1+” for “baseline GzmB+/IFN-γ+”, “was TIM3+/PD-1+” for “was GzmB+/IFN-γ+”, “the TIM3+/PD-1+” for “the GzmB+/IFN-γ+”

[12] = tested on: human CD8+ T cells
Experimental: as §13, §14

[13] = tested on: T-cells isolated from spleens; test: FoxP3/KLRG-1/CTLA4 in T-cells isolated from spleens of compound D-treated animals; assay type: in vivo; conditions: 2.5 mg IV daily for seven days
Experimental: Animals were treated with 2.5 mg of compound D IV daily for seven days. Upon completion of the treatment period, T-cells isolated from spleens of the animals were analyzed by flow cytometry.

[14] = tested on: Granzyme B and IFN-γ; test: Dose-response of GranzymeB/IFN-γ double positivity in murine CD8+ T-cells, Example 9; assay type: cell-based, C57BL/6 mice; conditions: Mus musculus, T-cell
Experimental: A dose-response analysis of compounds B-E in murine CD8+ T-cells was conducted to evaluate the effect of dose on GranzymeB/IFN-γ double positivity.
Compound C, D and E were first dissolved in a small volume of DMSO before diluting to the final desired concentration.
Splenocytes from naïve C57BL/6 mice were stained with CFSE, prepared, cultured, and dosed. Cells were seeded at 2×10^5 cells/well. Negative control was dosed with 10 ng/ml IL-2. After ConA stimulation (10 μg/ml), cells were dosed with log 3 dilution of each compound from 3×10^−9 to 30 µM in triplicates. All wells were dosed with 10 ng/ml of IL-2.
Flow cytometer analysis was performed to assess percent CD8+ T-cells and percent activation by double staining for Granzyme B (GzmB) and IFN-γ as described in Example 7. Concentration versus response curve was fitted to a 4- or 5-parameter log-logistic model using the “dre” package in “R”. Both EC50 and EC90 were obtained by model fitting.

[15] = 70 mM L-(+)-tartaric acid with 0.1 mM PS
[16] = 30 mM, in absence of PS, ConA 10 μg/ml

## O=C(O)[C@H](O)[C@@H](O)C(=O)O [L-(+)-tartaric acid]
[1]
  TNF-α production: stimulate TNF-α production
[2]
  TGF-β production: without stimulating TGF-β production
[3]
  effect on PS-suppressed CD8+ T-cell proliferation/accumulation (CFSE): partially reversed the effect of PS
[4]; [15]
  PD-1 expression: 23%
  TIM3 expression: 0.527%
  decrease of TIM3 expression compared to PS only group: about 66%
  frequency of cells co-expressing PD-1 and TIM3: 0.198%
  reduction of PD-1 expression compared to PS only-treated group: about 35%
  reduction of cells co-expressing PD-1 and TIM3 compared to PS only: 91.4%
[5]; [16]
  percent of CD8+ T-cell proliferation: 41.74%
[6]; [15]
  increase in viable CD8+ T cells compared to PS-treated cells alone: 65%

## O=C(O)[C@H](O)[C@@H](O)C(=O)NCCCc1ccccc1 [Compound G, (2R,3R)-2,3-dihydroxy-4-oxo-4-((3-phenylpropyl)amino)butanoic acid]
[7]
  activity after oral administration (KLRG1+, PD1+ T-cells): effective after oral administration
  percent KLRG1+ T-cells compared to untreated animals: dose-dependent reduction
[8]
  percent PD1+ T-cells compared to untreated animals: dose-dependent reduction

## O=C(O)[C@H](O)[C@@H](O)C(=O)OCc1ccccc1 [A, (2R,3R)-4-(benzyloxy)-2,3-dihydroxy-4-oxobutanoic acid]
[5]; [16]
  percent of CD8+ T-cell proliferation: 64.4%

## phosphatidylserine [PS, reference compound]
[4]; 0.1 mM PS only
  PD-1 expression: 35%
  TIM3 expression: 1.53%
  frequency of cells co-expressing PD-1 and TIM3: 2.31%
[5]; controls: ConA 20 μg/ml + IL2, 0.1 mM PS
  percent of CD8+ T-cell proliferation: 4.84%
[9]; 0.1 mM PS
  fold increase in CD8+ T-cell proliferation compared to control cells: 28 fold
[9]; controls: high dose ConA 20 μg/ml, 0.1 mM PS liposomes
  percent proliferation of CD8+ T-cells: 4.24%
[10]
  GzmB+/IFN-γ+ double-positive CD8+ T-cells relative to negative control: one half
[11]
  fold increase in TIM3+/PD-1+ double-positive CD8+ T-cells vs negative control: 1.27 fold
[12]
  microscopic observation of cells: did not look healthy
[6]; controls: ConA 20 μg/ml + IL-2, 0.1 mM PS after ConA stimulation
  CD8+ T-cell survival: 25.9%

## O=C(O)[C@H](O)[C@@H](O)C(=O)OCCC1c2ccccc2-c2ccccc21 [Compound D, (2R,3R)-4-(2-(9H-fluoren-9-yl)ethoxy)-2,3-dihydroxy-4-oxobutanoic acid]
[13]
  CTA4+/CD8+ T-cells: 0.27%
  FoxP3+ CD4+ T-cells: 5.42%
  KLRG-1+/CD8+ T-cells: 5.11%
  reduction in CTA4+/CD8+ T-cells: 27%
  reduction in FoxP3+ CD4+ T-cells compared to control animals: 58%
  reduction in KLRG-1+/CD8+ T-cells: 80%
[14]; 4-parameter model
  EC50: 4.1 nM
  EC90: 50 nM
[14]; 5-parameter model
  EC50: 3.5 nM
  EC90: 39 nM
[14]; FIG. 4, 5-parameter fit, read-out: maximal response (GzmB/IFN-γ double positive CD8+ T-cells)
  Emax: 40%

## O=C(O)[C@H](O)[C@@H](O)C(=O)NCCn1c2ccccc2c2ccccc21 [Compound F, (2R,3R)-4-((2-(9H-carbazol-9-yl)ethyl)amino)-2,3-dihydroxy-4-oxobutanoic acid]
[7]
  activity after oral administration (KLRG1+, PD1+ T-cells): effective after oral administration
  percent KLRG1+ T-cells compared to untreated animals: dose-dependent reduction
[8]
  percent PD1+ T-cells compared to untreated animals: dose-dependent reduction
